Measurements reported in patent US9283222B2 (priority 2006, dated 2016).

These compounds were tested against Recombinant Human Poly(ADP-Ribose) Polymerase (PARP), PARP-1 (Homo sapiens (Human), UniProt P09874). Details: read-out: PARP-1 (Ki); Table 1; text calls the values EC50s.
Sequence of Recombinant Human Poly(ADP-Ribose) Polymerase (PARP), PARP-1 (P09874 whole entry): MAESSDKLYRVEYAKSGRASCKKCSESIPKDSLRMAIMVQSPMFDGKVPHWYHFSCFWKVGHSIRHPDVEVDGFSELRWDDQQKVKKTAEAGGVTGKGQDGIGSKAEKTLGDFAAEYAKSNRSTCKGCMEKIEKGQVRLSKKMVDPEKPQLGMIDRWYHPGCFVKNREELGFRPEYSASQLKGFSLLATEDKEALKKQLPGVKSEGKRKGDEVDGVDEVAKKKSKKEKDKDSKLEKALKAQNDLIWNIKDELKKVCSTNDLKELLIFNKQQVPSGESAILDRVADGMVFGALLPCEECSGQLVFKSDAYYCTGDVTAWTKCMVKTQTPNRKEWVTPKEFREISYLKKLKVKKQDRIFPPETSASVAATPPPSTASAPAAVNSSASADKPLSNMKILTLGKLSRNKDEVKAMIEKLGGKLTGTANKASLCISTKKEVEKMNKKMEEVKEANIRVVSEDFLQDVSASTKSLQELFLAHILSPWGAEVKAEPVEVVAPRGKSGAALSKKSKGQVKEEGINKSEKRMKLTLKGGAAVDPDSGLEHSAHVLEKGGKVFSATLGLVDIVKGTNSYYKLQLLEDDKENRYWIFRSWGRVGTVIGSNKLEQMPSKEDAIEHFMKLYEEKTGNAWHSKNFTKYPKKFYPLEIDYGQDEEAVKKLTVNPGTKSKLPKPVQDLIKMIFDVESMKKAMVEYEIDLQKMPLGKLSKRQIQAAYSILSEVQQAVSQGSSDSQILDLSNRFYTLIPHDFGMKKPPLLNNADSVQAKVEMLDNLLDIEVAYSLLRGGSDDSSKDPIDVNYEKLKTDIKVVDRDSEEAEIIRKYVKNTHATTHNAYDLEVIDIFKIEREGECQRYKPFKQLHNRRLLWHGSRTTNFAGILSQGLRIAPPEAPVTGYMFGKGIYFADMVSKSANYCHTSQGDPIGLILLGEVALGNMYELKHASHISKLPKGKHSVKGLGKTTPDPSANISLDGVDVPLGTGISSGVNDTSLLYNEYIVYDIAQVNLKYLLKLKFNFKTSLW

SMILES | Ki
O=C1CCN1c1ccc(Cc2n[nH]c(=O)c3c2CCCC3)cn1 [Example 105, 4-((6-(2-oxoazetidin-1-yl)pyridin-3-yl)methyl)-5,6,7,8-tetrahydrophthalazin-1(2H)-one] | 725 nM
O=C(Nc1ccc(Cc2n[nH]c(=O)c3c2CCCC3)cn1)c1ccccc1 [Example 106, N-(5-((4-oxo-3,4,5,6,7,8-hexahydrophthalazin-1-yl)methyl)pyridin-2-yl)benzamide] | 290 nM
O=C(Nc1ccc(Cc2n[nH]c(=O)c3c2CCCC3)cn1)c1ccncc1 [Example 107, N-(5-((4-oxo-3,4,5,6,7,8-hexahydrophthalazin-1-yl)methyl)pyridin-2-yl)isonicotinamide] | 216 nM
O=C(Nc1ccc(Cc2n[nH]c(=O)c3c2CCCC3)cn1)c1cccnc1 [Example 108, N-(5-((4-oxo-3,4,5,6,7,8-hexahydrophthalazin-1-yl)methyl)pyridin-2-yl)nicotinamide] | 576 nM
O=c1[nH]nc(Cc2ccc(-c3ccc(Cc4n[nH]c(=O)c5c4CCCC5)cn3)nc2)c2c1CCCC2 [Example 109, 4-((5′-((4-oxo-3,4,5,6,7,8-hexahydrophthalazin-1-yl)methyl)-2,2′-bipyridin-5-yl)methyl)-5,6,7,8-tetrahydrophthalazin-1(2H)-one] | 609 nM
CNC(=O)c1ccc(Cc2n[nH]c(=O)c3c2CCCC3)s1 [Example 110, N-methyl-5-((4-oxo-3,4,5,6,7,8-hexahydrophthalazin-1-yl)methyl)thiophene-2-carboxamide] | 372 nM
NCC(=O)Nc1cccc(Cc2n[nH]c(=O)c3c2CCCC3)c1 [Example 111] | 12 nM
O=C(Nc1cccc(Cc2n[nH]c(=O)c3c2CCCC3)c1)C1CNC1 [Example 113, N-(3-((4-oxo-3,4,5,6,7,8-hexahydrophthalazin-1-yl)methyl)phenyl)azetidine-3-carboxamide] | 6 nM
CS(=O)(=O)Nc1cccc(Cc2n[nH]c(=O)c3c2CCCC3)c1 [Example 114, N-(3-((4-oxo-3,4,5,6,7,8-hexahydrophthalazin-1-yl)methyl)phenyl)methanesulfonamide] | 65 nM
CC(C)S(=O)(=O)Nc1cccc(Cc2n[nH]c(=O)c3c2CCCC3)c1 [Example 115, N-(3-((4-oxo-3,4,5,6,7,8-hexahydrophthalazin-1-yl)methyl)phenyl)propane-2-sulfonamide] | 157 nM
O=c1[nH]nc(Cc2cccc(NS(=O)(=O)c3ccccc3)c2)c2c1CCCC2 [Example 116, N-(3-((4-oxo-3,4,5,6,7,8-hexahydrophthalazin-1-yl)methyl)phenyl)benzenesulfonamide] | 578 nM
O=c1[nH]nc(Cc2cccc(NS(=O)(=O)c3cccnc3)c2)c2c1CCCC2 [Example 117, N-(3-((4-oxo-3,4,5,6,7,8-hexahydrophthalazin-1-yl)methyl)phenyl)pyridine-3-sulfonamide] | 477 nM
O=c1[nH]nc(Cc2cccc(NS(=O)(=O)c3ccco3)c2)c2c1CCCC2 [Example 118, N-(3-((4-oxo-3,4,5,6,7,8-hexahydrophthalazin-1-yl)methyl)phenyl)furan-2-sulfonamide] | 2030 nM
Cn1cnc(S(=O)(=O)Nc2cccc(Cc3n[nH]c(=O)c4c3CCCC4)c2)c1 [Example 119, 1-methyl-N-(3-((4-oxo-3,4,5,6,7,8-hexahydrophthalazin-1-yl)methyl)phenyl)-1H-imidazole-4-sulfonamide] | 703 nM
O=c1[nH]nc(Cc2cccc(NS(=O)(=O)c3cccs3)c2)c2c1CCCC2 [Example 120, N-(3-((4-oxo-3,4,5,6,7,8-hexahydrophthalazin-1-yl)methyl)phenyl)thiophene-2-sulfonamide] | 626 nM
N#Cc1ccc(S(=O)(=O)Nc2cccc(Cc3n[nH]c(=O)c4c3CCCC4)c2)cc1 [Example 121, 4-cyano-N-(3-((4-oxo-3,4,5,6,7,8-hexahydrophthalazin-1-yl)methyl)phenyl)benzenesulfonamide] | 776 nM
O=C1CCCN1c1cccc(Cc2n[nH]c(=O)c3c2CCCC3)n1 [Example 125, 4-((6-(2-oxopyrrolidin-1-yl)pyridin-2-yl)methyl)-5,6,7,8-tetrahydrophthalazin-1(2H)-one] | 47 nM
O=C(Nc1cccc(Cc2n[nH]c(=O)c3c2CCCC3)n1)c1ccccc1 [Example 126, N-(6-((4-oxo-3,4,5,6,7,8-hexahydrophthalazin-1-yl)methyl)pyridin-2-yl)benzamide] | 286 nM
O=c1[nH]nc(Cc2cccc(-c3cccc(CNC4CCCC4)c3)c2)c2c1CCCC2 [Example 128, 4-((3′-((cyclopentylamino)methyl)-1,1′-biphenyl-3-yl)methyl)-5,6,7,8-tetrahydrophthalazin-1(2H)-one] | 43 nM
CC1CCCN1Cc1cccc(-c2cccc(Cc3n[nH]c(=O)c4c3CCCC4)c2)c1 (stereo not shown) [Example 129, 4-((3′-((2-methylpyrrolidin-1-yl)methyl)-1,1′-biphenyl-3-yl)methyl)-5,6,7,8-tetrahydrophthalazin-1(2H)-one] | 41 nM

SMILES | Ki
O=c1[nH]nc(Cc2cccc(-c3cccc(CNC4CC4)c3)c2)c2c1CCCC2 [Example 130, 4-((3′-((cyclopropylamino)methyl)-1,1′-biphenyl-3-yl)methyl)-5,6,7,8-tetrahydrophthalazin-1(2H)-one] | 24 nM
O=c1[nH]nc(Cc2cccc(-c3cccc(CNC4CCC4)c3)c2)c2c1CCCC2 [Example 131, 4-((3′-((cyclobutylamino)methyl)-1,1′-biphenyl-3-yl)methyl)-5,6,7,8-tetrahydrophthalazin-1(2H)-one] | 32 nM
O=c1[nH]nc(Cc2cc[n+]([O-])c(Br)c2)c2c1CCCC2 [Example 132, 4-((2-bromo-1-oxidopyridin-4-yl)methyl)-5,6,7,8-tetrahydrophthalazin-1(2H)-one] | 1040 nM
O=C1CCCN1c1cc(Cc2n[nH]c(=O)c3c2CCCC3)cc[n+]1[O-] [Example 133, 4-((1-oxido-2-(2-oxopyrrolidin-1-yl)pyridin-4-yl)methyl)-5,6,7,8-tetrahydrophthalazin-1(2H)-one] | 724 nM
CC1(C(=O)Nc2cccc(Cc3n[nH]c(=O)c4c3CCCC4)c2)CC1 [Example 136, 1-methyl-N-(3-((4-oxo-3,4,5,6,7,8-hexahydrophthalazin-1-yl)methyl)phenyl)cyclopropanecarboxamide] | 76 nM
CC1CC1C(=O)Nc1cccc(Cc2n[nH]c(=O)c3c2CCCC3)c1 (stereo not shown) [Example 137, 2-methyl-N-(3-((4-oxo-3,4,5,6,7,8-hexahydrophthalazin-1-yl)methyl)phenyl)cyclopropanecarboxamide] | 69 nM
CCOCCC(=O)Nc1cccc(Cc2n[nH]c(=O)c3c2CCCC3)c1 [Example 138, 3-ethoxy-N-(3-((4-oxo-3,4,5,6,7,8-hexahydrophthalazin-1-yl)methyl)phenyl)propanamide] | 22 nM
O=C1CC[C@@H](C(=O)Nc2cccc(Cc3n[nH]c(=O)c4c3CCCC4)c2)N1 [Example 139, 5-oxo-N-(3-((4-oxo-3,4,5,6,7,8-hexahydrophthalazin-1-yl)methyl)phenyl)-L-prolinamide] | 206 nM
O=C1CC[C@H](C(=O)Nc2cccc(Cc3n[nH]c(=O)c4c3CCCC4)c2)N1 [Example 140, 5-oxo-N-(3-((4-oxo-3,4,5,6,7,8-hexahydrophthalazin-1-yl)methyl)phenyl)-D-prolinamide] | 60 nM
NC(=O)C1(C(=O)Nc2cccc(Cc3n[nH]c(=O)c4c3CCCC4)c2)CC1 [Example 141] | 77 nM
O=C(COCc1ccccc1)Nc1cccc(Cc2n[nH]c(=O)c3c2CCCC3)c1 [Example 142, 2-(benzyloxy)-N-(3-((4-oxo-3,4,5,6,7,8-hexahydrophthalazin-1-yl)methyl)phenyl)acetamide] | 11 nM
O=C(CCc1ccccc1)Nc1cccc(Cc2n[nH]c(=O)c3c2CCCC3)c1 [Example 143, N-(3-((4-oxo-3,4,5,6,7,8-hexahydrophthalazin-1-yl)methyl)phenyl)-3-phenylpropanamide] | 78 nM
COc1ccc(OC)c(CCC(=O)Nc2cccc(Cc3n[nH]c(=O)c4c3CCCC4)c2)c1 [Example 144, 3-(2,5-dimethoxyphenyl)-N-(3-((4-oxo-3,4,5,6,7,8-hexahydrophthalazin-1-yl)methyl)phenyl)propanamide] | 125 nM
O=C(Nc1cccc(Cc2n[nH]c(=O)c3c2CCCC3)c1)C1(c2ccccc2)CC1 [Example 145, N-(3-((4-oxo-3,4,5,6,7,8-hexahydrophthalazin-1-yl)methyl)phenyl)-1-phenylcyclopropanecarboxamide] | 57 nM
CC[C@H](C(=O)Nc1cccc(Cc2n[nH]c(=O)c3c2CCCC3)c1)c1ccccc1 [Example 146, (2S)-N-(3-((4-oxo-3,4,5,6,7,8-hexahydrophthalazin-1-yl)methyl)phenyl)-2-phenylbutanamide] | 678 nM
O=C(CCCc1ccccc1)Nc1cccc(Cc2n[nH]c(=O)c3c2CCCC3)c1 [Example 147, N-(3-((4-oxo-3,4,5,6,7,8-hexahydrophthalazin-1-yl)methyl)phenyl)-4-phenylbutanamide] | 41 nM
Cc1cccc(OCC(=O)Nc2cccc(Cc3n[nH]c(=O)c4c3CCCC4)c2)c1 [Example 148, 2-(3-methylphenoxy)-N-(3-((4-oxo-3,4,5,6,7,8-hexahydrophthalazin-1-yl)methyl)phenyl)acetamide] | 74 nM
Cc1ccccc1OCC(=O)Nc1cccc(Cc2n[nH]c(=O)c3c2CCCC3)c1 [Example 149, 2-(2-methylphenoxy)-N-(3-((4-oxo-3,4,5,6,7,8-hexahydrophthalazin-1-yl)methyl)phenyl)acetamide] | 22 nM
Cc1ccc(OCC(=O)Nc2cccc(Cc3n[nH]c(=O)c4c3CCCC4)c2)cc1 [Example 150, 2-(4-methylphenoxy)-N-(3-((4-oxo-3,4,5,6,7,8-hexahydrophthalazin-1-yl)methyl)phenyl)acetamide] | 16 nM
CO[C@@H](C(=O)Nc1cccc(Cc2n[nH]c(=O)c3c2CCCC3)c1)c1ccccc1 [Example 151, (2R)-2-methoxy-N-(3-((4-oxo-3,4,5,6,7,8-hexahydrophthalazin-1-yl)methyl)phenyl)-2-phenylacetamide] | 531 nM
